These results are taken from PMC10800023 (Human Molecular Genetics, 2023).

For data set [1] the following is noted: cited from earlier work.
A short description of data set [2]: Pharmacokinetics and biodistribution in C57BL/10 mice.

`C[C@@H]1C[C@H]2[C@@H]3CCC4=CC(=O)C=C[C@]4(C)C3=CC[C@]2(C)[C@@]1(O)C(=O)CO` [Vamorolone]: the “reduction of serum osteocalcin levels” value in data set [1] (Phase 2A, subjects with DMD, 6 mg/kg/day, 14 days of dosing) was ~ 33%. In addition, the “reduction of osteocalcin levels” value in data set [1] (Phase 2b 24-week study in DMD boys, 6 mg/kg) is recorded as 0.17%. In data set [2] (5 mg/kg), the “Brain AUC” value is 1418 hr∙ng/g of tissue, the “Brain Cmax” value is recorded as 443 ng/g of tissue and the “Brain/plasma ratio based on Cmax” value is reported as 0.54. Further, in data set [2] (30 mg/kg), the “Brain AUC” value is reported as 15538 hr∙ng/g of tissue and the “Brain Cmax” value is listed as 4402 ng/g of tissue.
